Experimental data: US9034846B2, “Use of cyclodextrin for treatment and prevention of bronchial inflammatory diseases” (UNIVERSITE DE LIEGE, priority 2004, dated 2015)

Legend:
OVA exposed mice [1] = test: Peribronchial inflammation score by histology, OVA mouse model; type: in vivo; conditions: 1, 7.5 and 50 mM, compared to placebo; FIG. 2
Protocol: (§1) In order to study modulation of airway inflammation, males BALB/c mice of 6 to 8 weeks old were sensitized by intraperitoneal injection of 10 μg ovalbumin (OVA) (Sigma Aldrich, Schnelldorf, Germany) emulsified in aluminum hydroxyde (AlumInject; Perbio, Erembodegem, Belgium) on days 1 and 8. Mice were subsequently exposed to allergens by daily inhalation of an aerosol of OVA 1%, for 30 minutes, generated by ultrasonic nebulizer (Devilbiss 2000), from day 21 to 27. […] Mice were sacrificed performed on day 28 as previously reported by Cataldo and al in Am. J. Pathol 2002; 161(2):491-498.
After BAL, the thorax was opened and the left main bronchus was clamped. The left lung was excised and frozen immediately at −80° C. for protein and mRNA extraction. The right lung was infused with 4 ml paraformaldehyde 4%, embedded in paraffin and used for histology. Sections of 5 μm thickness were cut off from paraffin and were stained with haematoxylin-eosin. The extent of peribronchial inflammation was estimated by a score calculated by quantification of peribronchial inflammatory cells, as previously described by Cataldo D D, Tournoy K G, Vermaelen K et al. in Am J Pathol 2002; 161(2):491-498. A value of 0 was adjudged when no inflammation was detectable, a value of 1 when there was occasionally inflammatory cells, a value of 2 when most bronchi were surrounded by a thin layer (1 to 5 cells) of inflammatory cells and a value of 3 when most bronchi were surrounded by a thick layer (>5 cells) of inflammatory cells. Since 5-7 randomly selected tissue sections per mouse were scored, inflammation scores are expressed as a mean value and can be compared between groups. After Congo Red staining, the eosinophilic infiltration in the airway walls was quantified by manual count and reported to the perimeter of epithelial basement membrane defining an eosinophilic inflammatory score.

OVA exposed mice [2] = test: Bronchial responsiveness to methacholine (Penh, barometric plethysmograph); type: in vivo, mouse
Protocol: as §1
Twenty-four hours after the last allergen exposure, the bronchial hyper responsiveness was determined by measuring the Penh (Enhanced Pause) using a barometric plethysmograph (Emka technologies, Paris) as proposed by Hamelmann, E., et al., Am. J. Respir. Crit. Care Med. 156 (1997) 766-775). The Penh was measured at baseline and […] after the inhalation of increasing doses (25, 50, 75 and 100 mM) of methacholine (Mch).

Eotaxin = Eotaxin ELISA in lung protein extracts, OVA mouse model; type: in vivo; conditions: all doses tested, compared to placebo; FIG. 7a
Protocol: (§2) In order to study modulation of airway inflammation, males BALB/c mice of 6 to 8 weeks old were sensitized by intraperitoneal injection of 10 μg ovalbumin (OVA) (Sigma Aldrich, Schnelldorf, Germany) emulsified in aluminum hydroxyde (AlumInject; Perbio, Erembodegem, Belgium) on days 1 and 8. Mice were subsequently exposed to allergens by daily inhalation of an aerosol of OVA 1%, for 30 minutes, generated by ultrasonic nebulizer (Devilbiss 2000), from day 21 to 27. Mice were subjected to inhalation of β-CD, HP-β-CD HP 1, 7.5, 50 mM and HP-β-CD 50 mM 30 minutes before OVA inhalation. Mice were sacrificed performed on day 28 as previously reported by Cataldo and al in Am. J. Pathol 2002; 161(2):491-498.
The left lung was crushed using a Mikro-Dismembrator (Braun Biotech International, Gmbh Melsungen, Germany). For proteins extraction, the crushed lung tissue was incubated overnight at 4° C. in a solution containing 2M urea, 1M NaCl and 50 mM Tris (pH 7.5) and subsequently centrifuged 15 minutes at 16.000×g. […]
(§3) Eotaxin and IL-13 levels were assessed using commercial ELISAs (R&D systems, Abingdon, UK). Eotaxin was measured by incubation in a wheel coated with a primary antibody specifically dedicated to the recognition of the protein and after rinsing, a second antibody against eotaxin, coupled with horse radish peroxydase was used to quantify the amounts of eotaxin in the solution

IL-13 = IL-13 ELISA in BAL and lung protein extracts, OVA mouse model; type: in vivo
Protocol: as §2
The left lung was crushed using a Mikro-Dismembrator (Braun Biotech International, Gmbh Melsungen, Germany). For proteins extraction, the crushed lung tissue was incubated overnight at 4° C. in a solution containing 2M urea, 1M NaCl and 50 mM Tris (pH 7.5) and subsequently centrifuged 15 minutes at 16.000×g. The supernatant was stored at −80° C.
as §3
IL-13 was measured by incubation in a wheel coated with a primary antibody specifically dedicated to the recognition of the protein and after rinsing, a second antibody against IL-13, coupled with horse radish peroxydase was used to quantify the amounts of […] in the solution.

CXCL-1 = CXCL-1 ELISA in lung protein extracts, LPS-induced inflammation model; type: in vivo, mouse; conditions: aerosolized 15 mM, vs placebo, FIG. 13
Protocol: In lipopolysaccharide (LPS)-induced inflammation model, mice were exposed to 3 μg LPS diluted in 100 μl of PBS or PBS (phosphate buffer saline) only administered by direct tracheal instillations at day 1 and 5 of the protocol. Mice were daily exposed either to aerosolized hydroxypropyl-beta-cyclodextrin (15 mM) or PBS for 30 min from day 0 to 5 (6 hours after LPS or sham exposure at days 1 and 5). Mice were sacrificed at day 6.
After sacrifice, thorax was opened and the right lungs were excised and snap frozen in liquid nitrogen for protein extraction. The left lung was insufflated at constant pressure with 4% paraformaldehyde and embedded in paraffin for further histological analysis. A peribronchial inflammation score was applied on each hematoxylin-eosin stained slide as previously reported (Cataldo et al Am J Pathol 2002). A value from 0 to 2 was adjudged to each bronchus. Score of 0 corresponded to bronchi without inflammation; score 1 to occasional mononuclear cells observed around bronchi, and score 2 to 1 to 5 layer(s) of inflammatory cells around bronchi. Six bronchi per mice were counted and statistical analysis was performed by using GraphPad Program. […] ELISA for CXCL-1 on lung protein extracts were assessed using antibodies from R&D Systems and the R&D Duoset® Elisa Development kit (R&D Systems, Minneapolis, Minn., USA).

Substance: hydroxypropyl-βcyclodextrin [HP-β-CD]
- peribronchial inflammation score (OVA exposed mice [1]): decreased inflammation score
- area under the methacholine dose-response curve (A.U.C) (OVA exposed mice [2]; 50 mM): significant decrease
- methacholine-induced Penh increase (OVA exposed mice [2]; 50 mM inhalation, FIG. 4): reduced
- levels of eotaxin in lung protein extracts (Eotaxin): decrease
- levels of IL-13 in whole lung protein extracts (IL-13; 50 mM, FIG. 11): significantly decreased
- IL-13 levels in BAL (IL-13; FIG. 7b): decreased
- Levels of CXCL-1 in lung protein extracts (CXCL-1): significantly decreased
